Measurements: patent US8492376B2, “Heteroaryl-cyclohexyl-tetraazabenzo[e]azulenes” (Hoffmann-La Roche Inc., priority 2010, dated 2013)
Structures can show the parent of a compound that is named as a salt.

Biological target: T1, human V1a receptor (Homo sapiens, UniProt P37288)
T1 construct: expressed in transfected cells; host or cells: HEK293 cells, transiently transfected; cell membranes
Experiment: human V1a receptor binding studies (3H-Vasopressin, SPA beads)
Settings: membranes from HEK293 cells transiently transfected with human V1a receptor, Ki calculated from IC50 by the Cheng-Prussoff equation, read-out: pKi (hV1a) (converted)
Protocol: The human V1a receptor was cloned by RT-PCR from total human liver RNA. The coding sequence was subcloned in an expression vector after sequencing to confirm the identity of the amplified sequence. […] Cell membranes were prepared from HEK293 cells transiently transfected with the expression vector and grown in 20 liter fermenters with the following protocol.
50 g of cells are resuspended in 30 ml freshly prepared ice cold Lyses buffer (50 mM HEPES, 1 mM EDTA, 10 mM magnesium dichloride adjusted to pH=7.4+complete cocktail of protease inhibitor (Roche Diagnostics)). Homogenized with Polytron for 1 min and solicited on ice for 2×2 minutes at 80% intensity (Vibrate solicitor). The preparation is centrifuged 20 min at 500 g at 4° C., the pellet is discarded and the supernatant centrifuged 1 hour at 43′000 g at 4° C. (19′000 rpm). The pellet is resuspended in 12.5 ml Lyses buffer+12.5 ml sucrose 20% and homogenized using a Polytron for 1-2 min. The protein concentration is determined by the Bradford method and aliquots are stored at −80° C. until use. For binding studies 60 mg Yttrium silicate SPA beads (Habersham®) are mixed with an aliquot of membrane in binding buffer (50 mM Tris, 120 mM sodium chloride, 5 mM potassium chloride, 2 mM calcium dichloride, 10 mM magnesium dichloride) for 15 minutes with mixing. 50 μl of bead/membrane mixture is then added to each well of a 96 well plate, followed by 50 μl of 4 nM 3H-Vasopressin (American Radiolabeled Chemicals). For total binding measurement 100 μl of binding buffer are added to the respective wells, for non-specific binding 100 μl of 8.4 mM cold vasopressin and for compound testing 100 μl of a serial dilution of each compound in 2% dimethyl sulfoxide. The plate is incubated 1 h at room temperature, centrifuged 1 min at 1000 g and counted on a Packard Top-Count. Non-specific binding counts are subtracted from each well and data is normalized to the maximum specific binding set at 100%. To calculate an IC50 the curve is fitted using a non-linear regression model (XLfit) and the Ki is calculated using the Cheng-Prussoff equation.

T1 sequence (P37288 whole entry): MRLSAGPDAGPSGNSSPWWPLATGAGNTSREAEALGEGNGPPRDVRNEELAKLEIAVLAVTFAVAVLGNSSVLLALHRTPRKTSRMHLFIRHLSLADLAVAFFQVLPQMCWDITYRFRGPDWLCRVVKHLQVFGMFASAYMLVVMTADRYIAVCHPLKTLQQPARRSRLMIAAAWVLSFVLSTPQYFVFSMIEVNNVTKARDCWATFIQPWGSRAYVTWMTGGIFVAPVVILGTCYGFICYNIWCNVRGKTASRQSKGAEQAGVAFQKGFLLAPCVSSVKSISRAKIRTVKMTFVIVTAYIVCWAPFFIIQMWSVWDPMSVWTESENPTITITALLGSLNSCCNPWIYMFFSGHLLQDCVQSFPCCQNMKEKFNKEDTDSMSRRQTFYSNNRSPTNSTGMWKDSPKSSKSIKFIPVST

Going from `CC(=O)N1Cc2cc(Cl)ccc2-n2c(nnc2[C@H]2CC[C@H](c3ncccc3F)CC2)C1` [Example 37, trans-1-{8-Chloro-1-[4-(3-fluoro-pyridin-2-yl)-cyclohexyl]-4H,6H-2,3,5,10b-tetraaza-benzo[e]azulen-5-yl}-ethanone] to `CC(C)N1Cc2cc(Cl)ccc2-n2c(nnc2[C@H]2CC[C@H](c3ncccc3F)CC2)C1` [Example 32, trans-8-Chloro-5-isopropyl-[4-(3-fluoro-pyridin-2-yl)-cyclohexyl]-5,6-dihydro-4H-2,3,5,10b-tetraaza-benzo[e]azulene], the Ki falls from 1.62 nM to 0.562 nM (2.9-fold).

First: Cc1cnc(C)c([C@H]2CC[C@H](c3nnc4n3-c3ccc(Cl)cc3CNC4)CC2)n1 [Example 79, trans-8-Chloro-1-[4-(3,6-dimethyl-pyrazin-2-yl)-cyclohexyl]-5,6-dihydro-4H-2,3,5,10b-tetraaza-benzo[e]azulene hydrochloride]
Second: Cc1nccc([C@H]2CC[C@H](c3nnc4n3-c3ccc(Cl)cc3CNC4)CC2)n1 [Example 67, trans-8-Chloro-1-[4-(2-methyl-pyrimidin-4-yl)-cyclohexyl]-5,6-dihydro-4H-2,3,5,10b-tetraaza-benzo[e]azulene]
The Ki of the first is 160-fold lower: 6.76 nM for the first, 1100 nM for the second.

Compared with `Fc1ccc([C@H]2CC[C@H](c3nnc4n3-c3ccc(Cl)cc3CNC4)CC2)nc1` [Example 23, trans-8-Chloro-1-[4-(5-fluoro-pyridin-2-yl)-cyclohexyl]-5,6-dihydro-4H-2,3,5,10b-tetraaza-benzo[e]azulene dihydrochloride], `CN1Cc2cc(Cl)ccc2-n2c(nnc2[C@H]2CC[C@H](c3ccc(F)cn3)CC2)C1` [Example 24, trans-8-Chloro-1-[4-(5-fluoro-pyridin-2-yl)-cyclohexyl]-5-methyl-5,6-dihydro-4H-2,3,5,10b-tetraaza-benzo[e]azulene] is 7.2-fold lower in Ki: 7.24 nM for the first, 1 nM for the second.

Compared with `CC(C)c1cccc([C@H]2CC[C@H](c3nnc4n3-c3ccc(Cl)cc3CN(C)C4)CC2)n1` [Example 12, trans-8-Chloro-1-[4-(6-isopropyl-pyridin-2-yl)-cyclohexyl]-5-methyl-5,6-dihydro-4H-2,3,5,10b-tetraaza-benzo[e]azulene], `CCc1cccc([C@H]2CC[C@H](c3nnc4n3-c3ccc(Cl)cc3CN(C)C4)CC2)n1` [Example 9, trans-8-Chloro-1-[4-(6-ethyl-pyridin-2-yl)-cyclohexyl]-5-methyl-5,6-dihydro-4H-2,3,5,10b-tetraaza-benzo[e]azulene] is 7.7-fold lower in Ki: 8.51 nM for the first, 1.1 nM for the second.

Going from `Fc1cccnc1[C@H]1CC[C@@H](c2nnc3n2-c2ccc(Cl)cc2CNC3)CC1` [Example 46, cis-8-Chloro-1-[4-(3-fluoro-pyridin-2-yl)-cyclohexyl]-5,6-dihydro-4H-2,3,5,10b-tetraaza-benzo[e]azulene] to `Clc1ccc2c(c1)CNCc1nnc([C@H]3CC[C@H](c4ccccn4)CC3)n1-2` [Example 2, trans-8-Chloro-1-(4-pyridin-2-yl-cyclohexyl)-5,6-dihydro-4H-2,3,5,10b-tetraaza-benzo[e]azulene dihydrochloride], the Ki falls from 200 nM to 10 nM (20-fold).

Going from `Cc1cncc([C@H]2CC[C@H](c3nnc4n3-c3ccc(Cl)cc3CN(C(=O)OC(C)(C)C)C4)CC2)n1` [Example 72, trans-8-Chloro-1-[4-(6-methyl-pyrazin-2-yl)-cyclohexyl]-4H,6H-2,3,5,10b-tetraaza-benzo[e]azulene-5-carboxylic acid tert-butyl ester] to `Cc1cnc(C)c([C@H]2CC[C@H](c3nnc4n3-c3ccc(Cl)cc3CN(C(=O)OC(C)(C)C)C4)CC2)n1` [Example 78, trans-8-Chloro-1-[4-(3,6-dimethyl-pyrazin-2-yl)-cyclohexyl]-4H,6H-2,3,5,10b-tetraaza-benzo[e]azulene-5-carboxylic acid tert-butyl ester], the Ki falls from 1.2 nM to 0.794 nM (1.5-fold).

Going from `CC(C)c1cccc([C@H]2CC[C@H](c3nnc4n3-c3ccc(Cl)cc3CNC4)CC2)n1` [Example 11, trans-8-Chloro-1-[4-(6-isopropyl-pyridin-2-yl)-cyclohexyl]-5,6-dihydro-4H-2,3,5,10b-tetraaza-benzo[e]azulene hydrochloride] to `Cc1cccc([C@H]2CC[C@H](c3nnc4n3-c3ccc(Cl)cc3CNC4)CC2)n1` [Example 5, trans-8-Chloro-1-[4-(6-methyl-pyridin-2-yl)-cyclohexyl]-5,6-dihydro-4H-2,3,5,10b-tetraaza-benzo[e]azulene], the Ki falls from 70.8 nM to 13.8 nM (5.1-fold).

Compared with `CN1Cc2cc(Cl)ccc2-n2c(nnc2[C@H]2CC[C@H](c3ncc(F)cc3F)CC2)C1` [Example 87, trans-8-Chloro-1-[4-(3,5-difluoro-pyridin-2-yl)-cyclohexyl]-5-methyl-5,6-dihydro-4H-2,3,5,10b-tetraaza-benzo[e]azulene], `CN1Cc2cc(Cl)ccc2-n2c(nnc2[C@H]2CC[C@H](c3ncccc3Cl)CC2)C1` [Example 84, trans-8-Chloro-1-[4-(3-chloro-pyridin-2-yl)-cyclohexyl]-5-methyl-5,6-dihydro-4H-2,3,5,10b-tetraaza-benzo[e]azulene] is 2.6-fold lower in Ki: 1.29 nM for the first, 0.501 nM for the second.

Compared with `CC(C)(C)OC(=O)N1Cc2cc(Cl)ccc2-n2c(nnc2[C@H]2CC[C@H](c3cccc(F)n3)CC2)C1` [Example 19, trans-8-Chloro-1-[4-(6-fluoro-pyridin-2-yl)-cyclohexyl]-4H,6H-2,3,5,10b-tetraaza-benzoazulene-5-carboxylic acid tert-butyl ester], `CC(C)(C)OC(=O)N1Cc2cc(Cl)ccc2-n2c(nnc2[C@H]2CC[C@H](c3cccc(Cl)n3)CC2)C1` [Example 16, trans-8-Chloro-1-[4-(6-chloro-pyridin-2-yl)-cyclohexyl]-4H,6H-2,3,5,10b-tetraaza-benzoazulene-5-carboxylic acid tert-butyl ester] is 2-fold lower in Ki: 0.603 nM for the first, 0.302 nM for the second.

Compared with `Clc1ccc2c(c1)CNCc1nnc([C@H]3CC[C@H](c4cccc(Cl)n4)CC3)n1-2` [Example 17, trans-8-Chloro-1-[4-(6-chloro-pyridin-2-yl)-cyclohexyl]-5,6-dihydro-4H-2,3,5,10b-tetraaza-benzo[e]azulene], `CCc1cccc([C@H]2CC[C@H](c3nnc4n3-c3ccc(Cl)cc3CNC4)CC2)n1` [Example 8, trans-8-Chloro-1-[4-(6-ethyl-pyridin-2-yl)-cyclohexyl]-5,6-dihydro-4H-2,3,5,10b-tetraaza-benzo[e]azulene] is 16-fold higher in Ki: 2.82 nM for the first, 44.7 nM for the second.

Compared with `Cc1cncc([C@H]2CC[C@H](c3nnc4n3-c3ccc(Cl)cc3CN(C)C4)CC2)n1` [Example 74, trans-8-Chloro-5-methyl-1-[4-(6-methyl-pyrazin-2-yl)-cyclohexyl]-5,6-dihydro-4H-2,3,5,10b-tetraaza-benzo[e]azulene], `Cc1nccc([C@H]2CC[C@H](c3nnc4n3-c3ccc(Cl)cc3CN(C)C4)CC2)n1` [Example 68, trans-8-Chloro-5-methyl-1-[4-(2-methyl-pyrimidin-4-yl)-cyclohexyl]-5,6-dihydro-4H-2,3,5,10b-tetraaza-benzo[e]azulene] is 11-fold higher in Ki: 11.2 nM for the first, 126 nM for the second.

Compared with `CN1Cc2cc(Cl)ccc2-n2c(nnc2[C@H]2CC[C@H](c3cccnc3F)CC2)C1` [Example 56, trans-8-Chloro-1-[4-(2-fluoro-pyridin-3-yl)-cyclohexyl]-5-methyl-5,6-dihydro-4H-2,3,5,10b-tetraaza-benzo[e]azulene], `CN1Cc2cc(Cl)ccc2-n2c(nnc2[C@H]2CC[C@@H](c3ncccn3)CC2)C1` [Example 62, cis-8-Chloro-5-methyl-1-(4-pyrimidin-2-yl-cyclohexyl)-5,6-dihydro-4H-2,3,5,10b-tetraaza-benzo[e]azulene] is 12-fold higher in Ki: 8.13 nM for the first, 95.5 nM for the second.

Going from `CC(C)(C)OC(=O)N1Cc2cc(Cl)ccc2-n2c(nnc2[C@H]2CC[C@H](c3ncccn3)CC2)C1` [Example 57, trans-8-Chloro-1-(4-pyrimidin-2-yl-cyclohexyl)-4H,6H-2,3,5,10b-tetraaza-benzo[e]azulene-5-carboxylic acid tert-butyl ester] to `CC(C)(C)OC(=O)N1Cc2cc(Cl)ccc2-n2c(nnc2[C@H]2CC[C@H](c3cnccn3)CC2)C1` [Example 69, trans-8-Chloro-1-(4-pyrazin-2-yl-cyclohexyl)-4H,6H-2,3,5,10b-tetraaza-benzo[e]azulene-5-carboxylic acid tert-butyl ester], the Ki falls from 1.58 nM to 0.603 nM (2.6-fold).

Going from `Clc1ccc2c(c1)CNCc1nnc([C@H]3CC[C@H](c4cc(Cl)ccn4)CC3)n1-2` [Example 26, trans-8-Chloro-1-[4-(4-chloro-pyridin-2-yl)-cyclohexyl]-5,6-dihydro-4H-2,3,5,10b-tetraaza-benzo[e]azulene] to `Cc1nccc([C@H]2CC[C@H](c3nnc4n3-c3ccc(Cl)cc3CN(C(=O)OC(C)(C)C)C4)CC2)n1` [Example 66, trans-8-Chloro-1-[4-(2-methyl-pyrimidin-4-yl)-cyclohexyl]-4H,6H-2,3,5,10b-tetraaza-benzo[e]azulene-5-carboxylic acid tert-butyl ester], the Ki rises from 1 nM to 9.77 nM (9.8-fold).
